Laboratory results as given in US12139499B2, “Heteroaryl compounds for treating Huntington's disease” (PTC THERAPEUTICS, INC., priority 2018, dated 2024).

Tested on: Endogenous Huntingtin Protein
Test: Endogenous Huntingtin Protein Assay (ELISA-based MSD electrochemiluminescence)
Assay type: cell-based
Conditions: Table 1
Method: Compounds of Formula (I) or Formula (II) were tested using the Meso Scale Discovery (MSD) Assay provided in International Application No. PCT/US2016/066042, filed on Dec. 11, 2016 and claiming priority to U.S. Provisional Application 62/265,652 filed on Dec. 10, 2015, the entire contents of which are incorporated herein by reference.
The Endogenous Huntingtin Protein assay used in Example 1 was developed using the ELISA-based MSD electrochemiluminescence assay platform.
Endogenous Huntingtin Protein Assay
Meso Scale Discovery (MSD) 96-well or 384-well plates were coated overnight at 4° C. with MW1 (expanded polyglutamine) or MAB2166 monoclonal antibody (for capture) at a concentration of 1 μg/mL in PBS (30 μL per well). Plates were then washed three times with 300 μL wash buffer (0.05% Tween-20 in PBS) and blocked (100 μL blocking buffer; 5% BSA in PBS) for 4-5 hours at room temperature with rotational shaking and then washed three times with wash buffer.
Samples (25 μL) were transferred to the antibody-coated MSD plate and incubated overnight at 4° C. After removal of the lysates, the plate was washed three times with wash buffer, and 25 μL of #5656S (Cell signaling; rabbit monoclonal) secondary antibody (diluted to 0.25 μg/mL in 0.05% Tween-20 in blocking buffer) was added to each well and incubated with shaking for 1 Hour at room temperature. Following incubation with the secondary antibody, the wells were rinsed with wash buffer after which 25 μL of goat anti-rabbit SULFO TAG secondary detection antibody (required aspect of the MSD system) (diluted to 0.25 μg/mL in 0.05% Tween-20 in blocking buffer) was added to each well and incubated with shaking for 1 hour at room temperature. After rinsing three times with wash buffer, 150 μL of read buffer T with surfactant (MSD) were added to each empty well, and the plate was imaged on a SI 6000 imager (MSD) according to manufacturers' instructions provided for 96- or 384-well plates.

Compound | IC50 [nM]
Cn1cc2cc(-c3ccc4nc(NC5CCNCC5)sc4c3)ccc2n1 [Compound 35, 6-(2-methyl-2H-indazol-5-yl)-N-(piperidin-4-yl)-1,3-benzothiazol-2-amine] | 100 to 500
Cc1cc(-c2ccc3nc(N(C)C4CCNCC4)sc3n2)cc2cn(C)nc12 [Compound 36, 5-(2,7-dimethyl-2H-indazol-5-yl)-N-methyl-N-(piperidin-4-yl)[1,3]thiazolo[5,4-b]pyridin-2-amine] | 100 to 500
Cc1cn2nc(-c3cc(F)c4nc(N(C)C5CC(C)(C)NC(C)(C)C5)sc4c3)ccc2n1 [Compound 37, 4-fluoro-N-methyl-6-(2-methylimidazo[1,2-b]pyridazin-6-yl)-N-(2,2,6,6-tetramethylpiperidin-4-yl)-1,3-benzothiazol-2-amine] | ≤ 100
CN(c1nc2ccc(-c3ccc4nn(C)cc4c3)cc2s1)C1CCNC1 (stereo not shown) [Compound 38, N-methyl-6-(2-methyl-2H-indazol-5-yl)-N-(pyrrolidin-3-yl)-1,3-benzothiazol-2-amine] | 1000 to 3000
Cc1cn2cc(-c3cc(F)c4nc(N(C)C5CC(C)(C)NC(C)(C)C5)sc4c3)cc(C)c2n1 [Compound 39, 6-(2,8-dimethylimidazo[1,2-a]pyridin-6-yl)-4-fluoro-N-methyl-N-(2,2,6,6-tetramethylpiperidin-4-yl)-1,3-benzothiazol-2-amine] | ≤ 100
Cc1cn2nc(-c3ccc4nc(N(C)C5CC(C)(C)NC(C)(C)C5)sc4c3)ccc2n1 [Compound 40, N-methyl-6-(2-methylimidazo[1,2-b]pyridazin-6-yl)-N-(2,2,6,6-tetramethylpiperidin-4-yl)-1,3-benzothiazol-2-amine] | ≤ 100
Cn1cc2cc(-c3ccc4nc(C5(F)CCNCC5)sc4c3)ccc2n1 [Compound 41, 2-(4-fluoropiperidin-4-yl)-6-(2-methyl-2H-indazol-5-yl)-1,3-benzothiazole] | 1000 to 3000
Cn1cc2cc(-c3ccc4nc(C5CCCNCC5)sc4c3)ccc2n1 (stereo not shown) [Compound 42, 2-(azepan-4-yl)-6-(2-methyl-2H-indazol-5-yl)-1,3-benzothiazole] | 100 to 500
Cn1cc2cc(-c3nc4ncc(C5CCNCC5)cc4s3)ccc2n1 [Compound 43, 2-(2-methyl-2H-indazol-5-yl)-6-(piperidin-4-yl)[1,3]thiazolo[4,5-b]pyridine] | 100 to 500
Cc1cn2nc(-c3cc(F)c4nc(C5=CCNCC5)sc4c3)ccc2n1 [Compound 44, 6-[4-fluoro-2-(1,2,3,6-tetrahydropyridin-4-yl)-1,3-benzothiazol-6-yl]-2-methylimidazo[1,2-b]pyridazine] | ≤ 100
Cc1cn2nc(-c3cc(F)c4nc(C5CCNCC5)sc4c3)ccc2n1 [Compound 45, 6-[4-fluoro-2-(piperidin-4-yl)-1,3-benzothiazol-6-yl]-2-methylimidazo[1,2-b]pyridazine] | ≤ 100
Cc1cn2nc(-c3cc(F)c4nc(C5=CCNCC5)sc4c3)cc(C)c2n1 [Compound 46, 6-[4-fluoro-2-(1,2,3,6-tetrahydropyridin-4-yl)-1,3-benzothiazol-6-yl]-2,8-dimethylimidazo[1,2-b]pyridazine] | ≤ 100
Cc1cn2nc(-c3cc(F)c4nc(C5CCNCC5)sc4c3)cc(C)c2n1 [Compound 47, 6-[4-fluoro-2-(piperidin-4-yl)-1,3-benzothiazol-6-yl]-2,8-dimethylimidazo[1,2-b]pyridazine] | ≤ 100
Cc1nc2ccc(-c3ccc4nc(N(C)C5CC(C)(C)NC(C)(C)C5)sc4c3)nn2n1 [Compound 48, N-methyl-6-(2-methyl[1,2,4]triazolo[1,5-b]pyridazin-6-yl)-N-(2,2,6,6-tetramethylpiperidin-4-yl)-1,3-benzothiazol-2-amine] | 100 to 500
Cc1cc(-c2nc3ccc(C4=CCNCC4)cc3s2)cc2cn(C)nc12 [Compound 49, 2-(2,7-dimethyl-2H-indazol-5-yl)-6-(1,2,3,6-tetrahydropyridin-4-yl)-1,3-benzothiazole] | 100 to 500
Cc1cc(-c2nc3ccc(C4CCNCC4)cc3s2)cc2cn(C)nc12 [Compound 50, 2-(2,7-dimethyl-2H-indazol-5-yl)-6-(piperidin-4-yl)-1,3-benzothiazole] | 100 to 500
CN(c1nc2ccc(-c3cc(C(F)(F)F)c4nn(C)cc4c3)cc2s1)C1CC(C)(C)NC(C)(C)C1 [Compound 51, N-methyl-6-[2-methyl-7-(trifluoromethyl)-2H-indazol-5-yl]-N-(2,2,6,6-tetramethylpiperidin-4-yl)-1,3-benzothiazol-2-amine] | 100 to 500

Compound | IC50 [nM]
Cn1cc2cc(-c3ccc4nc(C5CC(C)(C)NC(C)(C)C5)sc4c3)ccc2n1 [Compound 52, 6-(2-methyl-2H-indazol-5-yl)-2-(2,2,6,6-tetramethylpiperidin-4-yl)-1,3-benzothiazole] | 1000 to 3000
Cc1cn2cc(-c3cc(F)c4nc(C5=CCNCC5)sc4c3)nc(C)c2n1 [Compound 53, 6-[4-fluoro-2-(1,2,3,6-tetrahydropyridin-4-yl)-1,3-benzothiazol-6-yl]-2,8-dimethylimidazo[1,2-a]pyrazine] | 100 to 500
CCc1cc(-c2ccc3nc(N(C)C4CC(C)(C)NC(C)(C)C4)sc3c2)cc2cn(C)nc12 [Compound 54, 6-(7-ethyl-2-methyl-2H-indazol-5-yl)-N-methyl-N-(2,2,6,6-tetramethylpiperidin-4-yl)-1,3-benzothiazol-2-amine] | 100 to 500
Cc1cn2cc(-c3ccc4nc(N(C)C5CC(C)(C)NC(C)(C)C5)sc4c3)cc2c(C)n1 [Compound 55, 6-(1,3-dimethylpyrrolo[1,2-a]pyrazin-7-yl)-N-methyl-N-(2,2,6,6-tetramethylpiperidin-4-yl)-1,3-benzothiazol-2-amine] | ≤ 100
Cn1cc2cc(-c3ccc4nc(C5=CCCNCC5)sc4c3)ccc2n1 [Compound 56, 6-(2-methyl-2H-indazol-5-yl)-2-(2,3,6,7-tetrahydro-1H-azepin-4-yl)-1,3-benzothiazole] | 500 to 1000
CN(c1nc2ccc(-c3cc(F)c4nn(C)cc4c3)cc2s1)C1CC(C)(C)NC(C)(C)C1 [Compound 57, 6-(7-fluoro-2-methyl-2H-indazol-5-yl)-N-methyl-N-(2,2,6,6-tetramethylpiperidin-4-yl)-1,3-benzothiazol-2-amine] | ≤ 100
CC1CC(c2nc3ccc(-c4ccc5nn(C)cc5c4)cc3s2)CCN1 (stereo not shown) [Compound 58, 6-(2-methyl-2H-indazol-5-yl)-2-(2-methylpiperidin-4-yl)-1,3-benzothiazole] | 500 to 1000
Cc1cc(-c2cc3sc(C4CCNCC4)nc3cn2)cc2cn(C)nc12 [Compound 59, 6-(2,7-dimethyl-2H-indazol-5-yl)-2-(piperidin-4-yl)[1,3]thiazolo[4,5-c]pyridine] | 100 to 500
Cn1cc2cc(-c3cc4sc(C5CCNCC5)nc4cn3)cc(C(F)(F)F)c2n1 [Compound 60, 6-[2-methyl-7-(trifluoromethyl)-2H-indazol-5-yl]-2-(piperidin-4-yl)[1,3]thiazolo[4,5-c]pyridine] | 100 to 500
Cc1cn2nc(-c3cnc4nc(C5CCNCC5)sc4c3)cc(C)c2n1 [Compound 61, 6-(2,8-dimethylimidazo[1,2-b]pyridazin-6-yl)-2-(piperidin-4-yl)[1,3]thiazolo[4,5-b]pyridine] | ≤ 100
CN(c1nc2ccc(-c3cc(C#N)c4nn(C)cc4c3)cc2s1)C1CC(C)(C)NC(C)(C)C1 [Compound 62, 2-methyl-5-{2-[methyl(2,2,6,6-tetramethylpiperidin-4-yl)amino]-1,3-benzothiazol-6-yl}-2H-indazole-7-carbonitrile] | ≤ 100
Cc1cn2cc(-c3ccc4nc(N(C)C5CC(C)(C)NC(C)(C)C5)sc4c3)ccc2n1 [Compound 63, N-methyl-6-(2-methylimidazo[1,2-a]pyridin-6-yl)-N-(2,2,6,6-tetramethylpiperidin-4-yl)-1,3-benzothiazol-2-amine] | 100 to 500
Cn1cc2cc(-c3ccc4nc(OC5CC(C)(C)NC(C)(C)C5)sc4c3)ccc2n1 [Compound 64, 6-(2-methyl-2H-indazol-5-yl)-2-[(2,2,6,6-tetramethylpiperidin-4-yl)oxy]-1,3-benzothiazole] | 1000 to 3000
CC1CC(c2nc3ccc(-c4ccc5nn(C)cc5c4)cc3s2)=CCN1 (stereo not shown) [Compound 65, 6-(2-methyl-2H-indazol-5-yl)-2-(2-methyl-1,2,3,6-tetrahydropyridin-4-yl)-1,3-benzothiazole] | 100 to 500
Cc1cc(-c2ccc3nc(N(C)C4CCNC(C)C4)sc3c2)cc2cn(C)nc12 (stereo not shown) [Compound 66, 6-(2,7-dimethyl-2H-indazol-5-yl)-N-methyl-N-(2-methylpiperidin-4-yl)-1,3-benzothiazol-2-amine] | ≤ 100
CC1C=C(c2nc3ccc(-c4ccc5nn(C)cc5c4)cc3s2)CCN1 (stereo not shown) [Compound 67, 6-(2-methyl-2H-indazol-5-yl)-2-(6-methyl-1,2,3,6-tetrahydropyridin-4-yl)-1,3-benzothiazole] | 1000 to 3000
Cc1cc(-c2ccc3nc(OC4CC(C)(C)NC(C)(C)C4)sc3c2)cc2cn(C)nc12 [Compound 68, 6-(2,7-dimethyl-2H-indazol-5-yl)-2-[(2,2,6,6-tetramethylpiperidin-4-yl)oxy]-1,3-benzothiazole] | 1000 to 3000
